Measurements from patent US20200109117A1, “Modified Therapeutic Agent Analogs of Mefenamic Acid” (ACCESS Association, priority 2018, published 2020).
Like-named read-outs stand apart in the source and are kept apart here.

Columns and labels:
[1] = system: pilocarpine-induced seizure rats; assay: BBB permeability by contrast-enhanced MRI (Gd-DTPA) in rat seizure pre-clinical model; format: in vivo
Protocol: Structure (I), MFA-NIC, was assessed as a possible therapeutic in a rat seizure pre-clinical model. Assessments were conducted using Contrast-enhanced (CE) magnetic resonance (MR) imaging (MRI) and MR spectroscopy (MRS). The seizure model initially involved injection of pilocarpine (380 mg/kg i.p.) alone (Ikonomidou-Turski et al., 1988), however all rats undergoing this procedure died before MRS data could be obtained. A more recent model by Jeong et al. (2017) was adopted, where a lower dose of pilocarpine (25 mg/kg i.p.) was preceded by lithium chloride (127 mg/kg i.p.) 19 hours before, and scopolamine (2 mg/kg i.p.) 30 min. before, pilocarpine. Injection of pilocarpine induced status epilepticus about 20-30 min post-pilocarpine (Jeong et al., 2017). Pascente et al. (2016) also used lithium chloride 18 hours before pilocarpine. Scopolamine was also used by Behr et al. (2017) 30 m in before pilocarpine. Electroencephalography (EEG) was used in the Behr et al. study to confirm seizures.
A MRI contrast agent, Gd-DTPA (gadolinium diethylene triamine penta acetic acid) was used to establish if there was increased BBB permeability. […] Three brain regions were assessed: hippocampus, thalamus and cerebral cortex. […] This may be due to the variability in the change in MRI signal intensity in the seizure group, and the low number of rats per group. The smaller variability in the saline-treated controls was due to the large […] of n=25 (obtained from a previous study conducted in the Towner group). […] The saline-treated controls were used for all statistical comparisons.

[2] = pH 7.1; cited from earlier work
[3] = Solubility in distilled water and normal saline, visual inspection and HPLC; format: physicochemical; conditions: for Aqueous solubility checked on HPLC: aqueous solution, analogs compared with MFA; for Aqueous solubility on visual inspection: analogs compared with parent MFA
Text: The solubility of each molecular structure was checked in distilled water as well as in normal saline.

[4] = Stability study of MFA analogs in acetonitrile and distilled water, 1 day and 7 days, visual and HPLC; format: physicochemical; conditions: for Stability in acetonitrile and in distilled water up to 7 days: 4° C. and room temperature (~25° C.); for Stability 1 Day ACN 4° C. / Stability 7 Day ACN 4° C. / Stability 1 Day ACN RT / Stability 7 Day ACN RT: acetonitrile; for Stability 7 Day ACN 4° C. / Stability 7 Day ACN RT / Stability 7 Day DW 4° C. / Stability 7 Day DW RT: 7 days; for Stability 1 Day ACN RT / Stability 7 Day ACN RT / Stability 1 Day DW RT / Stability 7 Day DW RT: room temperature (~25° C.); for Stability 1 Day DW 4° C. / Stability 7 Day DW 4° C. / Stability 1 Day DW RT / Stability 7 Day DW RT: distilled water; for Stability in acetonitrile / Stability in distilled water after 1 day: after 1 day
Text: Therapeutic agents stable after 1 day were subjected to a 7 day stability study.
FIG. 1 provides the HPLC chromatogram of MFA-NIC showing stability of the modified drug kept at room temperature on day seven. FIG. 2 provides the HPLC chromatogram of MFA-MeNIC showing stability of the modified drug kept at room temperature on day seven.

[5] = system: pilocarpine-induced seizure rats; assay: EEG of seizure episodes in rat seizure model; format: in vivo; conditions: preliminary data
[6] = system: pilocarpine-induced seizure rats; assay: Brain metabolite levels by MR spectroscopy (ratios to Cho) in rat seizure pre-clinical model; format: in vivo
Protocol: Assessments were conducted using Contrast-enhanced (CE) magnetic resonance (MR) imaging (MRI) and MR spectroscopy (MRS). […] A more recent model by Jeong et al. (2017) was adopted, where a lower dose of pilocarpine (25 mg/kg i.p.) was preceded by lithium chloride (127 mg/kg i.p.) 19 hours before, and scopolamine (2 mg/kg i.p.) 30 min. before, pilocarpine. Injection of pilocarpine induced status epilepticus about 20-30 min post-pilocarpine (Jeong et al., 2017).
MRS was used to assess levels of brain metabolites, including N-acetyl aspartate (NAA), total creatine (Cr, total choline (Cho), taurine (Tau), glutamate (Glu) and myo-inositol (Myo-Ins). Cho was used as a normalization reference for all other metabolites. For the control group a total of 10 rats were assessed. For all other treatment groups n=5.

[7] = cerebral cortex, 50 mg/kg via gavage
[8] = cerebral cortex, 200 mg/kg via gavage
[9] = distilled water, water, solvent DW (distilled water), read-out: Solubility after molecular weight correction factor
[10] = distilled water, water, solvent DW (distilled water), read-out: Solubility in NS and DW
[11] = normal saline, saline or isotonic, solvent NS (normal saline), read-out: Solubility after molecular weight correction factor
[12] = normal saline, saline or isotonic, solvent NS (normal saline), read-out: Solubility in NS and DW
[13] = 200 mg/kg dose, found most effective
[14] = central brain region (primarily hippocampus), 10 mg/kg via gavage

| SMILES | BBB permeability vs saline-treated controls [1, 7] | BBB permeability vs saline-treated controls [1, 8] | Aqueous solubility checked on HPLC [3] | Area (HPLC) ([3]; solvent DW (distilled water)) | Area (HPLC) ([3]; solvent NS (normal saline)) | Aqueous solubility on visual inspection ([3]; water) | Stability in acetonitrile and in distilled water up to 7 days [4] | Stability 1 Day ACN 4° C. [4] | Stability 7 Day ACN 4° C. [4] | Stability 1 Day ACN RT [4] | Stability 7 Day ACN RT [4] | Stability 1 Day DW 4° C. [4] | Stability 7 Day DW 4° C. [4] | Stability 1 Day DW RT [4] | Stability 7 Day DW RT [4] | solubility [3, 9] | solubility [3, 10] | solubility [3, 11] | solubility [3, 12] | Stability in acetonitrile [4] | further results |
| --- | --- | --- | --- | --- | --- | --- | --- | --- | --- | --- | --- | --- | --- | --- | --- | --- | --- | --- | --- | --- | --- |
| Cc1cccc(Nc2ccccc2C(=O)O)c1C [MFA, N-(2,3-Dimethylphenyl)anthranilic acid, reference compound] | significant increase | significant increase | No peak | No Peak | No Peak | insoluble |  |  |  |  |  |  |  |  |  |  |  |  |  |  | BBB permeability vs saline-treated controls ([1]; hippocampus, 50 mg/kg via gavage): significant increase; BBB permeability vs saline-treated controls ([1]; thalamus, 50 mg/kg via gavage): significant increase; BBB permeability vs saline-treated controls ([1]; thalamus, 200 mg/kg via gavage): significant increase; Water solubility [2]: 0.004% |
| Cc1cccc(Nc2ccccc2C(=O)OC[n+]2cccc(C(=O)N(C)C)c2)c1C [MFA-2MeNIC, MFA- N,N-Dimethylnicotinamide N-Methylnicotinamide] |  |  | much higher | 9876828 | 18274457 | significantly higher | stable | Stable | Stable | Stable | Stable | Stable | Stable | Stable | Stable | 0.18 mg/mL | 0.39 mg/mL | 0.33 mg/mL | 0.72 mg/mL |  |  |
| CNC(=O)c1ccc[n+](COC(=O)c2ccccc2Nc2cccc(C)c2C)c1 [MFA-MeNIC, MFA- N-Methylnicotinamide] |  |  | much higher | 10643970 | 13844823 | significantly higher | stable | Stable | Stable | Stable | Stable | Stable | Stable | Stable | Stable | 0.2 mg/mL | 0.46 mg/mL | 0.27 mg/mL | 0.6 mg/mL |  |  |
| Cc1cccc(Nc2ccccc2C(=O)OCOC(=O)c2ccc[n+](C)c2)c1C [MFA-MeNICA, MFA-N-methylnicotinic acid] |  |  |  |  |  |  |  | Stable |  | Stable |  |  |  |  |  |  |  |  |  | stable | Stability in distilled water after 1 day [4]: unstable |
| Cc1cccc(Nc2ccccc2C(=O)OC[n+]2cccc(C(N)=O)c2)c1C [MFA-NIC, MFA-Nicotinamide] | significant increase | not significantly different | much higher | 6867539 | 2350506 | significantly higher | stable | Stable | Stable | Stable | Stable | Stable | Stable | Stable | Stable | 0.13 mg/mL | 0.28 mg/mL | 0.04 mg/mL | 0.1 mg/mL |  | BBB permeability, overall effect [1, 13]: effective in preventing an increase in BBB permeability; BBB permeability vs saline-treated controls ([1]; cerebral cortex, 10 mg/kg via gavage): not significantly different; BBB permeability vs saline-treated controls ([1]; hippocampus, all doses (10, 50 or 200 mg/kg via gavage)): None of the MFA-NIC (shown in FIGS. 4-11 as pro-MFA or pMFA)-treated rats were found to be significantly different; BBB permeability vs saline-treated controls ([1]; thalamus, all doses (10, 50 or 200 mg/kg via gavage)): None of the MFA-NIC (pro-MFA or pMFA)-treated rats were found to be significantly different; Level of seizure episodes (EEG) [5]: does reduce the level of seizure episodes; Brain metabolite levels, overall effect [6, 13]: effective in restoring brain metabolite levels back to normal; Myo-Ins/Cho ratio vs control (non-treated, non-seizure) group [6, 14]: significant decrease; NAA/Cho ratio vs control (non-treated, non-seizure) group [6, 14]: significant decrease |
| Cc1cccc(Nc2ccccc2C(=O)OCOC(=O)c2ccc[n+](COC(=O)NC(C)C)c2)c1C [MFA-PCA, MFA-Pyridinium, 3-carboxy-1-[N-(1-methylethyl)carbamic acid]] |  |  |  |  |  |  |  |  |  |  |  |  |  |  |  |  |  |  |  | not found to be stable | Stability in distilled water after 1 day [4]: not found to be stable |
